“Also recorded” adds a separate entry of the source. Read-outs that look alike come from different tables or passages of the source.
Experiments:
σ1 receptor [1] = molecular target: T1, σ1 receptor (Cavia porcellus, UniProt Q60492)
Method: (§1) In vitro binding studies were conducted in order to determine the affinity of the target compounds at σ1 and σ2 receptors.
(§2) In this example, test compounds were dissolved in N,N-dimethylformamide (DMF), dimethylsulfoxide (DMSO) or ethanol and then diluted in 50 mM Tris-HCl, pH 7.4 buffer containing 150 mM NaCl and 100 mM EDTA. Membrane homogenates were made from guinea pig brain for σ1 binding assays and rat liver for σ2 binding assays. Membrane homogenates were diluted with 50 mM Tris-HCl buffer, pH 8.0, and incubated at 25° C. in a total volume of 150 μL in 96-well plates with the radioligand and test compounds with concentrations ranging from 0.1 nM to 10 μM. After incubation was completed, the reactions were terminated by the addition of 150 μL of ice-cold wash buffer (10 mM Tris-HCl, 150 mM NaCl, pH 7.4) using a 96-channel transfer pipette (Fisher Scientific, Pittsburgh, Pa.), and the samples harvested and filtered rapidly through 96-well fiberglass filter plate (Millipore, Billerica, Mass.) that had been presoaked with 100 μL of 50 mM Tris-HCl buffer, pH 8.0, for 1 h. Each filter was washed three times with 200 μL of ice cold wash buffer.
(§3) Ki values were calculated using the method of Cheng and Prusoff20 and represent mean values±SEM.

σ2 receptor = molecular target: T2, σ2 receptor (Rattus norvegicus, UniProt Q5U3Y7); assay: σ2 receptor binding assay, [3H]DTG or [3H]RHM-1; conditions: for σ1/σ2 Ratio: Ki for σ1/Ki for σ2
T2 construct: from tissue; host or cells: rat liver membrane homogenates
T2 sequence (Q5U3Y7 1-176): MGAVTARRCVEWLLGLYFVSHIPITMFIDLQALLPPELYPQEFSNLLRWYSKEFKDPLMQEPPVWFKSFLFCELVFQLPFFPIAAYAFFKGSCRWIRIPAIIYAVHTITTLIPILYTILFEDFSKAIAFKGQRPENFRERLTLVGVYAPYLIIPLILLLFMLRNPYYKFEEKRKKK
Method: as §1, §2, §3

caspase-3/7 = assay: Caspase-3/7 whole cell assay in EMT-6 cells; type: cell-based, mouse; conditions: EMT-6, 40 μM, 24 h
Method: Detection of intracellular cellular caspase-3/7 activity. The activation of endogenous caspase-3/7 by the sigma ligands was measured using the CellProbe HT caspase-3/7 whole cell assay (Beckman Coulter, Fullerton, Calif.). The cell permeable, nonfluorescent bisamide substrate, Z-DEVD-R110, was added to the intact cells to detect apoptosis. Upon specific cleavage by caspase-3/7, Z-DEVD-R110 is converted to a fluorescent compound, and the fluorescent signal can be measured as follows. After adding the substrate, Z-DEVD-R110, to the cells treated with a sigma ligand, the plate was incubated for an additional 1.5-2 hour, and the resulting fluorescence measured using a Victor 3 microplate fluorometer at excitation and emission wavelengths of 485 nm and 535 nm, respectively.
In these experiments, to assess whether caspase-like activity was involved in the cytotoxic pathway, a caspase-3/7 whole cell assay was performed. This assay has advantages over other cell-based assays which use a cell lysate to monitor the activity of caspase-3/7. By not disrupting the cells, the whole cell assay tends to minimize the background noise contributed by non-specific protease activity in the cell lysates. Consequently, a greater specificity for the caspase-3/7 activity can be achieved with the whole cell assay. […] The accumulation of the fluorescent product was quantified using a fluorescence microplate reader. […]

[2] = test system: pancreatic cancer cell lines (Panc-02, CFPAC-1, AsPC-1, Panc-1); assay: Apoptosis in pancreas cancer cell lines (TUNEL / cleaved caspase-3, flow cytometry); type: cell-based, mouse, human; conditions: 24 hours incubation
Method: Tumor cells were seeded at a density of approximately 0.2×10^6 cells per well in 12-well plates in 1.0 ml culture medium. Cells were split and pre-incubated at 37° C. in humidified 5% CO2 for more than 24 hours (Panc-02) and 48 hours (CFPAC-1, AsPC-1, Panc-1) to insure uniform growth conditions. Compounds were dissolved in DMSO and added to the culture medium at the concentrations indicated. The final concentration of DMSO in the cell culture medium was less than 1%. The cells were then incubated for 24 hours at 37° C. in humidified 5% CO2. The extent of apoptosis was subsequently measured as previously reported (Guelen, L., et al., Oncogene 2004, 23: 1153-1165). Briefly, staining was performed on trypsin-EDTA treated cultures that had been fixed with 1% paraformaldehyde and 90% methanol. Cell pellets were resuspended in TUNEL reagent (APO-BRDU kit, San Diego, Calif.) or cleaved caspase-3 antibody (Cell Signaling Technology, Inc. Boston, Mass.) and incubated overnight at room temperature (TUNEL) or 4° C. (cleaved caspase-3). After washing, cells were resuspended in fluorescein antibody or 7-AAD buffer and incubated for 1 hour at room temperature. Cell-associated fluorescence was determined using a flow cytometry (FACScan, BD Biosciences) and analyzed with CellQuest software (BD Biosciences).
At the highest dose tested (10 μM), all sigma-2 receptor ligands induced an additional 10-20% of the cells to undergo apoptosis (FIG. 15A). […] The pan-caspase inhibitor (Z-VAD-fmk) and caspase-3/7 inhibitor (DEVD-CHO) prevented sigma-2 receptor ligand-induced apoptosis in panc-02 cells, while the caspase-1 inhibitor (YVAD-CHO) had no effect (FIG. 15B).

EMT-6 cells [3] = assay: TUNEL assay, enhancement of Dox-induced apoptosis in EMT-6 cells; type: cell-based, mouse
Method: In these experiments, a TUNEL assay was used to detect apoptotic cells with damaged DNA strands. […] Furthermore, EMT-6 cells treated with Dox at 30 nM yielded only 10% TUNEL-positive cells. However, when EMT-6 cells were treated with 2 μM WC-II-26 plus 30 nM Dox, the percentage of TUNEL-positive cells rose to 43.3%.

σ1 receptor [4] = molecular target: T1, σ1 receptor; assay: biochemical
Method: as §1, §2, §3

[5] = Toxicity in treated mice (serum biochemistry, immunohistochemistry)
Method: Female C57BL/6 mice (8-12 weeks old) were purchased from the NCI and acclimated for at least 1 week before tumor implantation. […] For the survival study, mice (N=10 per group) were treated with sigma-2 receptor ligand at the stated concentration or vehicle control once a day for 5 days.

Panc-02 tumor allografts = assay: In vivo apoptosis (FACS, active caspase-3) in tumor and organs of Panc-02 bearing mice
Method: Female C57BL/6 mice (8-12 weeks old) were purchased from the NCI and acclimated for at least 1 week before tumor implantation. All mice were injected in the right flank with 200 μl of a single cell suspension containing 1.0×10^6 Panc-02 cells. Treatment of the tumors started 2 weeks after tumor implantation when their size reached a mean diameter of 5-8 mm. To evaluate the effect of sigma-2 receptor ligands both systemically and on tumor in vivo, several mice were sacrificed after a single treatment. Necropsy was performed and single cell suspensions were prepared from retrieved organs. The extent of apoptosis in these cells was measured by FACS (described above).

Panc-02 tumors = assay: Antitumor effect in vivo: tumor growth and survival, Panc-02 model; design: species or system C57BL/6 mice; conditions: listed as WC26
Method: Mean tumor diameter was measured three times each week.

EMT-6 cells [6] = assay: Colony formation assay on Doxorubicin-treated EMT-6 cells; type: cell-based, mouse
Method: This Example illustrates colony formation assay on Doxorubicin (“Dox”)-treated EMT-6 cells in the presence or absence of 2 μM WC-II-26. The structures of the sigma ligands used in this and subsequent examples are illustrated in FIG. 5 and FIG. 6.

[7] = Ki for σ2 (nM), as listed in Table 2
[8] = Ki σ2, inhibiting binding of [3H]DTG or [3H]RHM-1 to rat liver homogenates, mean ± SEM

T1 sequence (Q60492 whole entry): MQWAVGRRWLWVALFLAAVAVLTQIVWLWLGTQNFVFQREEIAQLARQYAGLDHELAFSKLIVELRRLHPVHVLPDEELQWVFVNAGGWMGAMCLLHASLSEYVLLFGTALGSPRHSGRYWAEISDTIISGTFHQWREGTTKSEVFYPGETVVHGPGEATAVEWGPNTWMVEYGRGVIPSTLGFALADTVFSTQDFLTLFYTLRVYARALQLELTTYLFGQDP

## O[C@@H](CN1C2CCC1CC(c1ccccc1)C2)c1cccc(Br)c1 (some centres unmarked) [RHM-I-138]
σ1 receptor [1]
  Ki: 544 nM
σ2 receptor
  σ1/σ2 Ratio: 44
σ2 receptor; [7]
  Ki: 12.3 nM
σ2 receptor; [8]
  Ki: 12.3 nM
caspase-3/7
  increase of endogenous caspase-3/7 activity compared with untreated cells: 2 fold

## COc1ccc(C)cc1NC(=O)OC1CC2CCCC(C1)N2CCCCCCN (centres unmarked) [SV119]
[2]
  apoptosis in all pancreas cancer cell lines tested: dose-dependent apoptosis
σ2 receptor; [7]
  Ki: 19.9 nM
caspase-3/7
  increase of endogenous caspase-3/7 activity compared with untreated cells: 2 fold

## COc1ccc(C)cc1NC(=O)O[C@H]1C[C@H]2CCC[C@@H](C1)N2Cc1ccc(N(C)C)cc1 [WC-II-26]
EMT-6 cells [3]; EMT-6, 2 μM WC-II-26 alone
  TUNEL-positive cells: less than 5%
EMT-6 cells [3]; EMT-6, 2 μM WC-II-26 plus 30 nM Dox
  TUNEL-positive cells: 43.3%
[2]
  apoptosis in all pancreas cancer cell lines tested: dose-dependent apoptosis
σ1 receptor [4]
  Ki: 5570 nM
[5]; 50 or 100 mg/kg once a day for five days
  acute, systemic toxicity based on blood chemistry parameters: no acute, systemic toxicity
[5]; after WC26 treatment (data not shown)
  acute toxicity on immunohistochemical evaluation of normal tissues: no acute toxicity
[5]; after systemic administration
  toxicity in serum biochemistry data: no apparent toxicity
[5]; values still within reference ranges
  effect on serum biochemistry at the highest dose tested: elevated AST and depressed creatinine and glucose levels
Panc-02 tumor allografts; single 2 mg dose, Panc-02 tumor allografts, p<0.0001
  tumor cells active caspase-3 positive: up to 50%
Panc-02 tumor allografts; systemic administration
  apoptosis in pancreas and livers: < 10%
Panc-02 tumor allografts; systemic administration, any of the concentrations tested
  apoptosis in brain, lung, kidney or spleen (active caspase-3, FACS): did not induce apoptosis
Panc-02 tumors; 50 or 100 mg/kg (1 or 2 mg/day) intraperitoneal once a day for five days
  tumor growth / tumor size versus vehicle control: tumors shrank; also recorded: smaller tumors
Panc-02 tumors; 50 or 100 mg/kg (1 or 2 mg/day) once a day for five days, p=0.002
  survival (tumor diameter 15 mm or ulceration as endpoint): significant survival benefit; also recorded: compared favorably
σ2 receptor
  σ1/σ2 Ratio: 511
σ2 receptor; [7]
  Ki: 10.8 nM
σ2 receptor; [8]
  Ki: 10.9 nM
EMT-6 cells [6]; EMT-6, 2 μM WC-II-26 alone
  number of colonies formed compared to control cells: not changed significantly
EMT-6 cells [6]; EMT-6, 2 μM WC-II-26 combined with 10 nM Dox
  ability of survival reduced (% of control): 38 % of control
EMT-6 cells [6]; EMT-6, 2 μM WC-II-26 combined with 20 nM Dox
  ability of survival reduced (% of control): 77 % of control
EMT-6 cells [6]; EMT-6, 2 μM WC-II-26 combined with 30 nM Dox
  ability of survival reduced (% of control): 86 % of control
EMT-6 cells [6]; EMT-6, 2 μM WC-II-26 combined with 40 nM Dox
  ability of survival reduced (% of control): 92 % of control

Reference: patent publication US8168650B2, “Therapeutic uses of bicyclic ligands of sigma 2 receptor” (priority 2006, dated 2012)
